From patent US10294202B2, “Pyrrolidinones as herbicides” (FMC Corporation, priority 2013, dated 2019)

Tests used:
[1] = test system: velvetleaf; experiment: Test A pre-/postemergence herbicide test; format: in vivo, Abutilon theophrasti; conditions: for Velvetleaf plant response rating: visual rating on 0 to 100 scale (0 no effect, 100 complete control)
In short: (§1)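 Visual injury ratings, 0 = no effect, 100 = complete control, taken ~10 days after treatment against untreated greenhouse controls. Preemergence: directed soil spray onto seeded loam/sand pots. Postemergence: spray onto plants at one- to two-leaf stage, 2–10 cm tall.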

[2] = test system: barnyardgrass; experiment: Test C flooded paddy test; format: in vivo, Echinochloa crus-galli; conditions: Flood
In short: (§2)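 Visual ratings from 0, no effect, to 100, complete control, were made against untreated controls after 13–15 greenhouse days. Compounds had gone straight into paddy water 3 cm above the soil, kept at that depth, on 2-leaf-stage plants.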

[3] = test system: ducksalad; experiment: Test C flooded paddy test; format: in vivo, Heteranthera limosa; conditions: Flood
In short: as §2

[4] = test system: ryegrass, Italian; experiment: Test A pre-/postemergence herbicide test; format: in vivo, Lolium multiflorum
In short: as §1

[5] = test system: blackgrass; experiment: Test A postemergence herbicide test; format: in vivo, Alopecurus myosuroides
In short: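 Ratings compare treated with untreated plants roughly 10 days after a postemergence application made at the one- to two-leaf stage. Scoring uses 0–100, where 0 means no effect and 100 complete control.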

[6] = test system: kochia; experiment: Test C pre-/postemergence herbicide test; format: in vivo, Kochia scoparia; conditions: Preemergence
From the text: Seeds of plant species selected from blackgrass (Alopecurus myosuroides), ryegrass, Italian (Italian ryegrass, Lolium multiflorum), wheat (winter wheat, Triticum aestivum), galium (catchweed bedstraw, Galium aparine), corn (Zea mays), crabgrass, large (large crabgrass, Digitaria sanguinalis), foxtail, giant (giant foxtail, Setaria faberii), johnsongrass (Sorghum halepense), lambsquarters (Chenopodium album), morningglory (Ipomoea coccinea), nutsedge, yellow (yellow nutsedge, Cyperus esculentus), pigweed (Amaranthus retroflexus), ragweed (common ragweed, Ambrosia elatior), soybean (Glycine max), barnyardgrass (Echinochloa crus-galli), oilseed rape (Brassica napus), waterhemp (common waterhemp, Amaranthus rudis), kochia (Kochia scoparia), oat, wild (wild oat, Avena fatua), surinam grass (Brachiaria decumbens), foxtail, green (green foxtail, Setaria viridis), goosegrass (Eleusine indica), bromegrass, downy (downy bromegrass, Bromus tectorum), nightshade (eastern black nightshade, Solanum ptycanthum), cocklebur (common cocklebur, Xanthium strumarium), cupgrass, woolly (woolly cupgrass, Eriochloa villosa), bermudagrass (Cynodon dactylon), sunflower, (common oilseed sunflower, Helianthus annuus), Russian thistle (Salsola kali) and velvetleaf (Abutilon theophrasti) were planted into a blend of loam soil and sand and treated preemergence with test chemicals formulated in a non-phytotoxic solvent mixture which included a surfactant. At the same time, plants selected from these crop and weed species and also barley (winter barley, Hordeum vulgare), […]), chickweed (common chickweed, Stellaria media), deadnettle (henbit deadnettle, Lamium amplexicaule), and canarygrass (littleseed canarygrass, Phalaris minor) were planted in pots containing Redi-Earth® planting medium (Scotts Company, 14111 Scottslawn Road, Marysville, Ohio 43041) comprising spaghnum peat moss, vermiculite, wetting agent and starter nutrients and treated with postemergence applications of test chemicals formulated in the same manner. Plants ranged in height from 2 to 18 cm (1- to 4-leaf stage) for postemergence treatments. Treated plants and controls were maintained in a greenhouse for 13 to 15 days, after which time all species were compared to controls and visually evaluated. Plant response ratings, summarized in Table C, are based on a scale of 0 to 100 where 0 is no effect and 100 is complete control. A dash (-) response means no test result.

[7] = Postemergence, 125 g ai/ha, 0 to 100 scale, 0 no effect, 100 complete control
[8] = Postemergence, 500 g ai/ha, 0 to 100 scale (0 no effect, 100 complete control)
[9] = preemergence, 500 g ai/ha, 0 to 100 scale
[10] = 31 g ai/ha, scale of 0 to 100 where 0 is no effect and 100 is complete control, 13 to 15 days
[11] = 62 g ai/ha, scale of 0 to 100 where 0 is no effect and 100 is complete control, 13 to 15 days
[12] = 125 g ai/ha, scale of 0 to 100 where 0 is no effect and 100 is complete control, 13 to 15 days
[13] = Postemergence, 125 g ai/ha, visual rating on 0 to 100 scale (0 no effect, 100 complete control), approx. 10 days
[14] = Preemergence, 125 g ai/ha, 0 to 100 scale where 0 is no effect and 100 is complete control
[15] = Preemergence, 500 g ai/ha, visual rating on 0 to 100 scale (0 no effect, 100 complete control)
[16] = 125 g ai/ha, visual rating on 0 to 100 scale (0 no effect, 100 complete control), approx. 10 days
[17] = 500 g ai/ha, 0 to 100 scale (0 no effect, 100 complete control)
[18] = 250 g ai/ha, scale of 0 to 100 where 0 is no effect and 100 is complete control, 13 to 15 days
[19] = 125 g ai/ha, visual rating, 0 to 100 scale, 0 no effect, 100 complete control, approximately 10 days, preemergence
[20] = Postemergence, 125 g ai/ha, 0 to 100 scale, 0 is no effect, 100 is complete control
[21] = preemergence, 500 g ai/ha, 0 to 100 scale, 0 is no effect and 100 is complete control

SMILES	Plant response rating, Velvetleaf [1, 8]	Plant response rating, Barnyardgrass [2, 10]	Plant response rating, Barnyardgrass [2, 11]	Plant response rating, Barnyardgrass [2, 12]	Plant response rating, Barnyardgrass ([2]; 250 g ai/ha, scale 0 to 100)	Plant response rating, Ducksalad [3, 10]	Plant response rating, Ducksalad [3, 11]	Plant response rating, Ducksalad [3, 12]	Plant response rating, Ducksalad ([3]; 250 g ai/ha, scale 0 to 100)	Plant response rating, Blackgrass [5, 17]	Plant response rating, Barnyardgrass [2, 18]	Plant response rating, Ducksalad [3, 18]	other results
O=C1NCC(c2ccc(F)c(F)c2)C1C(=O)Nc1cccc(F)c1 (racemic) [Compound 12]	20	0	0	0	65	0	0	0	0				Plant response rating, Velvetleaf [1, 7]: 0; Velvetleaf plant response rating ([1]; Preemergence, 125 g ai/ha): 0; Plant response rating, Velvetleaf [1, 9]: 0
O=C1NCC(c2cccc(C(F)(F)F)c2)C1C(=O)Nc1ccccc1Cl (stereo not shown) [Compound 312]		0	0	30		50	60	65		50	60	95	Plant response rating, Ryegrass, Italian [4, 13]: 20; Plant response rating, Ryegrass, Italian [4, 8]: 40; Plant response rating, Ryegrass, Italian [4, 14]: 20; Ryegrass, Italian plant response rating [4, 15]: 60; Plant response rating, Blackgrass [5, 16]: 40
O=C1NCC(c2cccc(C(F)F)c2)C1C(=O)Nc1cccc(F)c1F (racemic) [Compound 211]				0				60			50	100	Plant response rating, Ryegrass, Italian [4, 19]: 0; Plant response rating, Ryegrass, Italian [4, 20]: 30; Ryegrass, Italian plant response rating (0 to 100 scale, 0 is no effect, 100 is complete control) ([4]; Postemergence, 500 g ai/ha): 60; Plant response rating, Ryegrass, Italian [4, 21]: 40; Plant response rating, Blackgrass ([5]; 125 g ai/ha, 0 to 100 scale, 0 is no effect, 100 is complete control): 50; Blackgrass plant response rating (0 to 100 scale, 0 is no effect, 100 is complete control) ([5]; 500 g ai/ha): 70; Plant response rating, Barnyardgrass ([2]; 500 g ai/ha, scale 0 to 100): 55; Plant response rating, Barnyardgrass ([2]; 1000 g ai/ha, scale 0 to 100): 80; Plant response rating, Ducksalad ([3]; 500 g ai/ha, scale 0 to 100): 75; Plant response rating, Ducksalad ([3]; 1000 g ai/ha, scale 0 to 100): 100
O=C1NCC(c2cccc(OC(F)F)c2)C1C(=O)Nc1cccc(F)c1F (stereo not shown) [Compound 324]		0	0	60		40	70	95		70	70	100	Plant response rating, Ryegrass, Italian [4, 13]: 30; Plant response rating, Ryegrass, Italian [4, 8]: 50; Plant response rating, Ryegrass, Italian [4, 14]: 30; Ryegrass, Italian plant response rating [4, 15]: 40; Plant response rating, Blackgrass [5, 16]: 60
O=C1NCC(c2ccc(C(F)(F)F)nc2)C1C(=O)Nc1cccc(F)c1F (racemic) [Compound 263]		20	35	45		70	90	100			80	100	Plant response rating, Velvetleaf [1, 14]: 50; Plant response rating, Velvetleaf [1, 21]: 50
O=C1NCC(c2cccc(Br)c2)C1C(=O)Nc1cccc(F)c1F (stereo not shown) [Compound 64]	30												Plant response rating, Velvetleaf [1, 7]: 0; Velvetleaf plant response rating ([1]; Preemergence, 125 g ai/ha): 0; Plant response rating, Velvetleaf [1, 9]: 0; Plant response rating, Kochia ([6]; 62 g ai/ha, scale 0 to 100): 0; Plant response rating, Kochia ([6]; 125 g ai/ha, scale 0 to 100 (0 no effect, 100 complete control)): 20
O=C1NCC(c2ccc(F)cc2)C1C(=O)Nc1cccc(F)c1F (racemic) [Compound 119]		30	50	60	75	100	100	100	100	50			Plant response rating, Ryegrass, Italian [4, 19]: 20; Plant response rating, Ryegrass, Italian [4, 7]: 20; Ryegrass, Italian plant response rating (0 to 100 scale, 0 is no effect, 100 is complete control) ([4]; Postemergence, 500 g ai/ha): 40; Plant response rating, Ryegrass, Italian [4, 9]: 60; Plant response rating, Blackgrass ([5]; 125 g ai/ha, 0 to 100 scale, 0 no effect, 100 complete control): 30
O=C1NCC(c2cccc(C(F)(F)F)c2)C1C(=O)Nc1ccccc1Cl (racemic) [Compound 189]				10	30			75	80				Plant response rating, Velvetleaf [1, 19]: 0; Plant response rating, Velvetleaf [1, 20]: 0; Velvetleaf plant response rating (0 to 100 scale, 0 is no effect, 100 is complete control) ([1]; Postemergence, 500 g ai/ha): 0; Plant response rating, Velvetleaf [1, 21]: 0; Plant response rating, Barnyardgrass ([2]; 500 g ai/ha, scale 0 to 100): 50; Plant response rating, Barnyardgrass ([2]; 1000 g ai/ha, scale 0 to 100): 75; Plant response rating, Ducksalad ([3]; 500 g ai/ha, scale 0 to 100): 95; Plant response rating, Ducksalad ([3]; 1000 g ai/ha, scale 0 to 100): 100
O=C1NCC(c2cccc(C(F)(F)F)c2)C1C(=O)Nc1ccccc1F (racemic) [Compound 3]	0	0	20	40	55	40	60	85	90				Velvetleaf plant response rating ([1]; Preemergence, 125 g ai/ha): 0; Plant response rating, Velvetleaf [1, 9]: 0
Cc1cccc(NC(=O)C2C(=O)NCC2c2cccc(C(F)(F)F)c2)c1 (stereo not shown) [Compound 317]		0	0	30		0	0	0		20	30	0	Plant response rating, Ryegrass, Italian [4, 13]: 0; Plant response rating, Ryegrass, Italian [4, 8]: 0; Plant response rating, Ryegrass, Italian [4, 14]: 0; Ryegrass, Italian plant response rating [4, 15]: 0; Plant response rating, Blackgrass [5, 16]: 0
O=C1NCC(c2ccc(C(F)(F)F)c(F)c2)C1C(=O)Nc1cccc(F)c1F (racemic) [Compound 247]	0										25	75	Plant response rating, Velvetleaf [1, 20]: 0; Plant response rating, Velvetleaf [1, 14]: 0; Plant response rating, Velvetleaf [1, 21]: 0; Plant response rating, Barnyardgrass ([2]; 500 g ai/ha, scale 0 to 100): 35; Plant response rating, Barnyardgrass ([2]; 1000 g ai/ha, scale 0 to 100): 70; Plant response rating, Barnyardgrass ([2]; 2000 g ai/ha, scale 0 to 100): 80; Plant response rating, Ducksalad ([3]; 500 g ai/ha, scale 0 to 100): 85; Plant response rating, Ducksalad ([3]; 1000 g ai/ha, scale 0 to 100): 100; Plant response rating, Ducksalad ([3]; 2000 g ai/ha, scale 0 to 100): 100
